Patent US12257284B2, “Lantibiotics, lantibiotic-producing bacteria, compositions and methods of production and use thereof” (MEMORIAL SLOAN-KETTERING CANCER CENTER, priority 2017, dated 2025)
Non-standard residues stand in square brackets, D forms with d. No end group written: not given here. Dhb = C/C=C(\N)C(=O)O; Dha = C=C(N)C(=O)O

What was measured:
E. faecium = assay: Spectrum: bacterial survival with B. producta culture extract; type: cell-based; conditions: greater than 100 kDa concentrated supernatant; 6, 24 or 48 hours; FIG. 34
Description: (§1) 10^7 CFU/mL B. producta was cultured for 0, 6, 24 hours in BHIS anaerobically at 37° C. The culture supernatant at 0, 6, and 24 hours was filtered through a 0.22 μm filter, then concentrated by ultrafiltration with a molecular weight cut off greater than 100 kDa. The concentrated culture supernatant was then diluted to the original volume with fresh BHIS culture medium. 10^3 CFU/mL VRE, B. producta, C. bolteae, P. distasonis, B. sartorii, C. difficile, K pneumoniae, E. coli, S. aureus, E. faecalis, E. faecium, or L monocytogenes were cultured for 6, 24, or 48 hours anaerobically at 37° C.

B. producta = assay: as above; type: cell-based; conditions: greater than 100 kDa concentrated supernatant; 6, 24 or 48 hours; FIG. 34
Description: as §1

P. distasonis = assay: as above; type: cell-based; conditions: greater than 100 kDa concentrated supernatant; 6, 24 or 48 hours; FIG. 34
Description: as §1

E. coli = assay: as above; type: cell-based; conditions: greater than 100 kDa concentrated supernatant; 6, 24 or 48 hours; FIG. 34
Description: as §1

S. aureus = assay: as above; type: cell-based; conditions: greater than 100 kDa concentrated supernatant; 6, 24 or 48 hours; FIG. 34
Description: as §1

E. faecalis = assay: as above; type: cell-based; conditions: greater than 100 kDa concentrated supernatant; 6, 24 or 48 hours; FIG. 34
Description: as §1

L. monocytogenes = assay: as above; type: cell-based; conditions: greater than 100 kDa concentrated supernatant; 6, 24 or 48 hours; FIG. 34
Description: as §1

K. pneumoniae = assay: as above; type: cell-based; conditions: greater than 100 kDa concentrated supernatant; 6, 24 or 48 hours; FIG. 34
Description: as §1

C. difficile = assay: as above; type: cell-based; conditions: greater than 100 kDa concentrated supernatant; 6, 24 or 48 hours; FIG. 34
Description: as §1

B. sartorii = assay: as above; type: cell-based; conditions: greater than 100 kDa concentrated supernatant; 6, 24 or 48 hours; FIG. 34
Description: as §1

gram-positive bacteria = assay: Minimum inhibitory concentration by serial dilution against gram-positive bacterial strains; type: cell-based; conditions: dialyzed protein serially diluted in BHIS, 10^5 CFU/mL bacteria, 24 hours; FIG. 35
Description: 10^7 CFU/mL B. producta Caballero strain or Honda strain was cultured for 24 hours in BHIS anaerobically at 37° C. The culture supernatant was filtered through a 0.22 μm filter. Ammonium sulfate was added to the filtered culture supernatant at varying concentrations to precipitate proteins. Precipitated proteins were resolubilized in water (5 mg/mL) and dialyzed. The dialyzed protein or nisin (1:2) were serially diluted with fresh BHIS across a row of wells in a 96 well plate per gram-positive bacteria strain. 10^5 CFU/mL of various gram-positive bacterial strains indicated in FIG. 35 were cultured for 24 hours anaerobically at 37° C. The minimum inhibitory concentration (highest dilution at which gram-positive bacteria growth was inhibited) was thus identified.

VRE [1] = assay: Microscopy of VRE cultured with B. producta factor; type: cell-based, vancomycin-resistant Enterococcus; conditions: 10^8 CFU/mL VRE, 24 hours
Description: 10^7 CFU/mL B. producta was cultured for 24 hours anaerobically at 37° C. in BHIS. The culture supernatant was filtered through a 0.22 μm filter. Ammonium sulfate was added to the filtered culture supernatant at varying concentrations to precipitate proteins. Precipitated proteins were resolubilized in phosphate buffered saline (PBS) (2 mg/mL) and dialyzed. The dialyzed protein was returned to the original culture volume with supplemented PBS (the dialyzed protein was returned to the original culture volume with PBS) and samples were innoculated with 10^8 CFU/mL VRE and cultured for 24 hours anaerobically at 37° C. Bacteria were fixed onto slides for microscopy.

VRE [2] = assay: VRE cultured in cecal supernatant of mice colonized with B. producta strains; type: cell-based, vancomycin-resistant Enterococcus; conditions: cecal content 7 days post-transplant, 100 mg/mL, filtered; VRE 10^3 CFU/mL, 6 hours; FIG. 20
Description: 6-8 week old, C57BL/6 mice were administered ampicillin (0.5 g/L) in the drinking water for 5 days, and subsequently orally gavaged with a bacterial consortia (10^7 CFU per bacterial isolate). Bacterial consortia for oral gavage were prepared by individually culturing the B. producta Caballero strain, or the B. producta Honda strain, on Columbia base medium (agar, peptones, cornstarch) plus 5% sheep blood agar plates, anaerobically at 37° C. overnight. Each isolate was subsequently harvested and resuspended in reduced phosphate buffered saline (PBS) to a final concentration of 10^8 CFU/mL. 7 days post-transplant, cecal content was harvested and resuspended in PBS to a final concentration of 100 mg/mL. Cecal supernatant was collected by filtration through a 0.22 μm filter. VRE inoculated at 10^3 CFU/mL in the cecal supernatant and incubated at 37° C. aerobically. VRE was cultured for 6 hours and quantitated.

VRE [3] = assay: VRE cultured with ammonium sulfate precipitated, dialyzed B. producta protein, VRE CFU quantitated; type: cell-based, vancomycin-resistant Enterococcus
Description: 10^7 CFU/mL B. producta was cultured for 24 hours anaerobically at 37° C. in BHIS. The culture supernatant was filtered through a 0.22 μm filter. Ammonium sulfate was added to the filtered culture supernatant at varying concentrations to precipitate proteins. Precipitated proteins were resolubilized in phosphate buffered saline (PBS) (2 mg/mL) and dialyzed. The dialyzed protein was returned to the original culture volume with fresh culture medium and samples were innoculated with 10^3 CFU/mL VRE and cultured for 6 or 24 hours anaerobically at 37° C. […] 10^7 CFU/mL B. producta was cultured for 24 hours anaerobically at 37° C. in BHIS. The culture supernatant was filtered through a 0.22 μm filter. Ammonium sulfate was added to the filtered culture supernatant at varying concentrations to precipitate proteins. Precipitated proteins were resolubilized in phosphate buffered saline (PBS) (2 mg/mL) and dialyzed (the dialyzed protein was returned to the original culture volume with PBS) and samples were innoculated with 10^3 CFU/mL VRE and cultured for 6 or 24 hours anaerobically at 37° C.
10^7 CFU/mL B. producta was cultured for 24 hours anaerobically at 37° C. in BHIS. The culture supernatant was filtered through a 0.22 μm filter. 45% ammonium sulfate was added to the filtered culture supernatant to precipitate proteins. The precipitate was resolubilized in PBS (2 mg/mL), then dialyzed. The dialyzed protein was incubated with Proteinase K (1 mg/mL) for 1 hour at 37° C. These conditions are sufficient to completely digest BSA at a concentration of 100 μg/m, as evidenced by the […] in gel electrophoresis. The dialyzed protein/proteinase K solution was returned to its original volume in fresh culture medium and inoculated with 10^3 CFU/mL VRE the cultured for 6 or 24 hours anaerobically at 37° C.
10^7 CFU/mL B. producta was cultured for 24 hours anaerobically at 37° C. in BHIS. The culture supernatant was filtered through a 0.22 μm filter. 45% ammonium sulfate was added to the filtered culture supernatant to precipitate proteins. The precipitate was resolubilized in PBS (2 mg/mL), then dialyzed. The dialyzed protein was incubated at 100° C. for ten minutes. The heated, dialyzed protein solution was returned to its original volume in fresh culture medium and inoculated with 10^3 CFU/mL VRE the cultured for 6 or 24 hours anaerobically at 37° C.
10^7 CFU/mL B. producta was cultured for 24 hours anaerobically at 37° C. in BHIS. The culture supernatant was filtered through a 0.22 μm filter. Ammonium sulfate was added to the filtered culture supernatant at varying concentrations to precipitate proteins. […] Fecal pellets were collected 0, 5, 10 days after bacterial consortia transplant, and VRE was quantitated.

VRE [4] = assay: VRE cultured in filtered culture supernatants or size fractions, VRE CFU quantitated; type: cell-based, vancomycin-resistant Enterococcus; conditions: VRE 6 hours
Description: 10^7 CFU/mL B. producta or C. bolteae±10^3 CFU/mL VRE were cultured in BHIS for 6 hours anaerobically at 37° C. The culture supernatants were filtered through a 0.22 μm filter. 10^3 CFU/mL VRE were cultured in the filtered culture supernatants for 2, 6, or 24 hours anaerobically at 37° C. […] 10^7 CFU/mL B. producta, C. bolteae, P. distasonis, or B. sartorii were cultured in BHI overnight (at least 8 hours) anaerobically at 37° C. The culture supernatants were filtered through a 0.22 μm filter and diluted 1:2 in fresh BHIS. 10^3 CFU/mL VRE were cultured in the filtered culture supernatants for 2, 6, or 24 hours anaerobically at 37° C.
10^7 CFU/mL B. producta was cultured for 0, 6, 24 hours in BHIS anaerobically at 37° C. Culture growth was verified by quantitating B. producta CFU at 6, 24, 48, and 72 hours. […] The culture supernatant at 0, 6, and 24 hours was filtered through a 0.22 μm filter, then concentrated by ultrafiltration with a molecular weight cut off greater than 100 kDa. The concentrated culture supernatant was then diluted to the original volume with fresh BHIS culture medium. Concentrated/diluted medium was inoculated with 10^3 CFU/mL VRE and cultured anaerobically at 37° C. for 6, 24, 48 hours.
10^7 CFU/mL B. producta were cultured for 24 hours anaerobically at 37° C. in BHIS. […]

B. producta factor: VRE-inhibiting factor secreted by B. producta, a lantibiotic according to the disclosure (SEQ. ID. No.: 3) (I[Dhb][Dha]I[Dha]LA[Dhb]PGAK[Dhb]GALMGAV[Dhb]GILM[Dhb]APVQ[Dhb]A[Dhb]AGAQI[Dhb]GK; not fully specified; also: lantibiotic (lanthionine bridges not given here))
Inhibition of E. faecium (survival relative to negative control extract) (E. faecium): inhibited
Inhibition of B. producta (survival relative to negative control extract) (B. producta): not
Inhibition of P. distasonis (survival relative to negative control extract) (P. distasonis): not
Inhibition of E. coli (survival relative to negative control extract) (E. coli): not
Inhibition of S. aureus (survival relative to negative control extract) (S. aureus): inhibited
Inhibition of E. faecalis (survival relative to negative control extract) (E. faecalis): inhibited
Inhibition of L. monocytogenes (survival relative to negative control extract) (L. monocytogenes): inhibited
Inhibition of K. pneumoniae (survival relative to negative control extract) (K. pneumoniae): not
Inhibition of C. difficile (survival relative to negative control extract) (C. difficile): not
Inhibition of B. sartorii (survival relative to negative control extract) (B. sartorii): not
Inhibition of various gram-positive bacterial strains (minimum inhibitory concentration, highest dilution) (gram-positive bacteria): broadly inhibits gram-positive bacteria
Phase contrast microscopy of VRE versus control (VRE [1]; FIG. 21): smaller, less numerous, more frequently in a single coccus arrangement and surrounded by more cellular debris
Fluorescence microscopy of VRE (SYTO9 / propidium iodide) versus control (VRE [1]; FIG. 22): less viable
Gram stain light microscopy of VRE versus control (VRE [1]; FIG. 23): generally lacked purple staining
VRE growth in cecal supernatant of colonized mice (VRE [2]): inhibits VRE
Number of VRE (CFU) over time in PBS (bactericidal effect) (VRE [3]; 10^5 CFU/mL VRE, 6-120 hours in PBS, FIG. 18): permanent decline in the number of VRE
VRE inhibition after boiling (VRE [3]; 45% ammonium sulfate precipitate, 100° C. for ten minutes, FIG. 13): able to inhibit VRE
VRE inhibition after Proteinase K digestion (VRE [3]; 45% ammonium sulfate precipitate, Proteinase K 1 mg/mL, 1 hour at 37° C., FIG. 12): able to inhibit VRE
VRE inhibition by ammonium sulfate precipitate (VRE [3]; precipitate resolubilized, dialyzed, returned to volume with PBS, 6 or 24 hours, FIG. 11): inhibited VRE

nisin
VRE growth (VRE CFU) in filtered culture supernatant or nisin medium (VRE [4]; filtered supernatant, nisin extract powder 1 mg per 1 mL medium, FIG. 31 left panel): inhibited VRE
VRE growth (VRE CFU) with greater than 100 kDa concentrated samples (VRE [4]; samples concentrated by ultrafiltration, cut off greater than 100 kDa, diluted to original volume, FIG. 31 right panel): inhibited VRE
